Experimental data reported in PMC12881674, “Activation of TRPV3 channels in bladder cancer cells stimulates ATP release” (Molecular Pharmacology, 2025).
Where two headings read alike, the source gives them in different places.

Target: T1, TRPV3 in KU-19-19 cells (Homo sapiens, UniProt Q8NET8)
T1 construct: host or cells: KU-19-19
T1 sequence (Q8NET8 1-790): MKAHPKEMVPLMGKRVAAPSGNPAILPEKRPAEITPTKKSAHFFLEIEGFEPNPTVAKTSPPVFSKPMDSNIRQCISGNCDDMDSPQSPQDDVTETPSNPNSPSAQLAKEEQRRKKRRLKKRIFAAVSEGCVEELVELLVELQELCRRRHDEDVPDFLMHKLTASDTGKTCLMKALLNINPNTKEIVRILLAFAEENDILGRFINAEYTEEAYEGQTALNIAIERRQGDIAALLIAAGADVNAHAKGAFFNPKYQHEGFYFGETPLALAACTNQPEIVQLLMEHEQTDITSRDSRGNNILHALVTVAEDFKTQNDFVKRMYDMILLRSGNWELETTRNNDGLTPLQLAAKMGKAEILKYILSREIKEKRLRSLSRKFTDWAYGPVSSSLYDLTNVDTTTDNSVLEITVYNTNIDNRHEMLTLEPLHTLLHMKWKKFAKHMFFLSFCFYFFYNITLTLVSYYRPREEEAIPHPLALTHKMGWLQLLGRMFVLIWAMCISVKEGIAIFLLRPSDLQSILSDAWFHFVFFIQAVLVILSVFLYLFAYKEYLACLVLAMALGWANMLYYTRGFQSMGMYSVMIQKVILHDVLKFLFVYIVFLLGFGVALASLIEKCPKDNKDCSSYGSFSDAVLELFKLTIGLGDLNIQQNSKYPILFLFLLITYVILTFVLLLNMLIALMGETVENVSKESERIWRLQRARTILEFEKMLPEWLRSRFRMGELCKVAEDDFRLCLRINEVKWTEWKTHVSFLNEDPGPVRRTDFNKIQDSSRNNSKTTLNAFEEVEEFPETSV
Test: calcium assay concentration-response in KU-19-19 cells
Assay type: cell-based
Settings: read-out: EC50 for AV3-1-induced TRPV3 activation in KU-19-19 cells
Experimental: Supplementation of the cellular cholesterol content in KU-19-19 cells was performed by adding cholesterol-loaded methyl-β-cyclodextrin (MβCD) to the cells. Cholesterol was dissolved in ethanol (20 mg/mL) by heating at 65 °C for 15 minutes. The cholesterol solution was then added dropwise to a 250 mM MβCD solution prepared in phosphate-buffered solution (PBS; Sigma Aldrich) at a 1:4 (v/v) ratio, yielding a stock containing 200 mM MβCD-cholesterol. KU-19-19 cells were incubated for 15 minutes at 37 °C in HBS containing 2.5 mM MβCD-cholesterol. As a control, KU-19-19 cells were incubated in HBS without MβCD-cholesterol supplement under the same conditions.
All fluorometric Ca^2+ assays were performed in HBS buffer at room temperature. […] For the primary compound screening and the generation of concentration-response analyses, a robotic liquid handling station (Freedom Evo 150; Tecan) with a built-in custom-made fluorescence plate imager was used. […] Fluorescence was excited using a 470-nm light-emitting diode, and emitted light was imaged through a 515-nm–long pass filter with a cooled Zyla 5.5 camera (Andor). Fluorescence was recorded and processed under the control of the μ-Manager 2.0 gamma software (https://micro-manager.org.[28]). After recording baseline fluorescence, compounds were dispensed into the wells via the liquid handling device. […]

Work on `COC(=O)C12CN(Cc3ccccc3)CC1(C(=O)OC)CN(Cc1ccccc1)C2` (centres unmarked) [AV3-1] yielded an EC50 (cells not supplemented with cholesterol) of 19 ± 1.5 µM and an EC50 (cholesterol supplementation (2.5 mM MβCD-cholesterol)) of 6.3 ± 1.9 µM.
